Measured values reported in patent publication US20200095236A1, “ANTIBACTERIAL COMPOUNDS” (FORGE THERAPEUTICS, INC., priority 2017, published 2020).
≈ marks a conversion by molar mass, not a printed value. Like-named read-outs stand apart in the source and are kept apart here.

Legend:
[1] = target: E. coli LpxC (Escherichia coli, UniProt P0A725); assay: LpxC Binding Assay (Rapid Fire MS assay); type: biochemical
[2] = system: TLR-4 activity of A. baumannii culture supernatants; assay: TLR4 assay: TLR4 activity of A. baumannii culture supernatants in HEK-Blue-hTLR4 cells; type: cell-based; settings: Acinetobacter baumannii, HEK-Blue hTLR4, read-out: % TLR-4 activity
Procedure, shortened: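 A. baumannii was grown to mid-log phase with LpxC inhibitors, and culture supernatants were filter-sterilized and diluted 1:1000. Supernatant TLR4 activity was measured in HEK-Blue-hTLR4 cells carrying an NF-kB/AP-1-driven SEAP reporter and reported as % TLR-4 activity.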

[3] = system: E. coli; assay: Bacterial susceptibility testing, MIC by broth microdilution (CLSI); type: cell-based; settings: Escherichia coli, read-out: E. coli MIC
Protocol: (§1) Minimal inhibitory concentrations (MIC) were determined by the broth microdilution method in accordance with the Clinical and Laboratory Standards Institute (CLSI) guidelines. In brief, organism suspensions were adjusted to a 0.5 McFarland standard to yield a final inoculum between 3×10^5 and 7×10^5 colony-forming units (CFU)/mL. Drug dilutions and inocula were made in sterile, cation adjusted Mueller-Hinton Broth (Beckton Dickinson). An inoculum volume of 100 μL was added to wells containing 100 μL of broth with 2-fold serial dilutions of drug. All inoculated microdilution trays were incubated in ambient air at 35° C. for 18-24 h. Following incubation, the lowest concentration of the drug that prevented visible growth (OD600 nm<0.05) was recorded as the MIC. Performance of the assay was monitored by the use of laboratory quality-control strains and levofloxacin, a compound with a defined MIC spectrum, in accordance with CLSI guidelines.

[4] = system: K. pneumoniae; assay: as above; type: cell-based; settings: Klebsiella pneumoniae, read-out: K. pneumoniae MIC
Protocol: as §1

[5] = system: S. aureus; assay: as above; type: cell-based; settings: Staphylococcus aureus, read-out: S. aureus MIC
Protocol: as §1

[6] = broth microdilution, 35° C., 18-24 h

E. coli LpxC, sequence (P0A725 whole entry): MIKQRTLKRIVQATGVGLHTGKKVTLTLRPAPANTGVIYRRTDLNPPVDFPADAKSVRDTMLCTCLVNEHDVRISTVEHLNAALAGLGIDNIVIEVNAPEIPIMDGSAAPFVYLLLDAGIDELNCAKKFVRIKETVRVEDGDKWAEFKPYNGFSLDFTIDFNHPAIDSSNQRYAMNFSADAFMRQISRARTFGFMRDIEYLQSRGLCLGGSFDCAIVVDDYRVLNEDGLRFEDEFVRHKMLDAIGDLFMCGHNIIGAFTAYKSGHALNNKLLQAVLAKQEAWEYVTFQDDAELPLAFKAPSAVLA

| Compound | IC50 [1] [nM] | activity at 4 µg/mL [2] [%] | activity at 8 µg/mL [2] [%] | activity at 16 µg/mL [2] [%] | MIC [3, 6] [µg/mL] | MIC [4, 6] [µg/mL] | MIC [5, 6] [µg/mL] | MIC [3] [µg/mL] | MIC [4] [µg/mL] | MIC [5] [µg/mL] |
| --- | --- | --- | --- | --- | --- | --- | --- | --- | --- | --- |
| O=C(NCC(F)F)C(Cc1ccc(C#Cc2ccc(CN3CCOCC3)cc2)cc1)c1nc[nH]c(=O)c1O (stereo not drawn) [Compound 1, N-(2,2-difluoroethyl)-2-(5-hydroxy-6-oxo-1,6-dihydropyrimidin-4-yl)-3-(4-((4-(morpholinomethyl)phenyl)ethynyl)phenyl) propanamide] | < 10 | < 20 | < 20 | < 20 | < 1 | 1 to 8 (≈ 1.91 to 15.3 µM) | > 32 |  |  |  |
| O=c1[nH]cnc(CCc2ccc(C#Cc3cccc(Cl)c3)cc2)c1O [Compound 248, 6-(4-((3-chlorophenyl)ethynyl)phenethyl)-5-hydroxypyrimidin-4(3H)-one] | 100 to 1000 |  |  |  | > 32 | > 32 |  |  |  |  |
| O=c1[nH]cnc(CCc2ccc(C#Cc3ccc(CNC4CCOCC4)cc3)cc2)c1O [Compound 244, 5-hydroxy-6-(4-((4-(((tetrahydro-2H-pyran-4-yl)amino)methyl)phenyl)ethynyl)phenethyl)pyrimidin-4(3H)-one] | 100 to 1000 |  |  |  | < 1 | < 1 | > 32 |  |  |  |
| O=C(CF)NCC(Cc1ccc(C#Cc2ccc(CN3CCOCC3)cc2)cc1)c1nc[nH]c(=O)c1O (stereo not drawn) [Compound 12, 2-fluoro-N-(2-(5-hydroxy-6-oxo-1,6-dihydropyrimidin-4-yl)-3-(4-((4-(morpholinomethyl)phenyl)ethynyl)phenyl)propyl) acetamide] | 10 to 50 |  |  |  |  |  |  | < 1 | 1 to 8 (≈ 1.98 to 15.9 µM) | > 32 |
| O=c1[nH]cnc(C(CNCc2cccnc2)Cc2ccc(C#Cc3ccc(CN4CCOCC4)cc3)cc2)c1O (stereo not drawn) [Compound 250, 5-hydroxy-6-(1-(4-((4-(morpholinomethyl)phenyl)ethynyl)phenyl)-3-((pyridin-3-ylmethyl)amino)propan-2-yl)pyrimidin-4(3H)-one] | < 10 |  |  |  | < 1 | > 32 |  |  |  |  |
| O=C(NCC(F)(F)F)C(Cc1ccc(C#Cc2ccc(CN3CCOCC3)cc2)cc1)c1nc[nH]c(=O)c1O (stereo not drawn) [Compound 2, 2-(5-hydroxy-6-oxo-1,6-dihydropyrimidin-4-yl)-3-(4-((4-(morpholinomethyl)phenyl)ethynyl)phenyl)-N-(2,2,2-trifluoroethyl) propanamide] | 10 to 50 | < 20 | < 20 | < 20 | < 1 | 1 to 8 (≈ 1.85 to 14.8 µM) | > 32 |  |  |  |
| O=C(NCCF)C(Cc1ccc(C#Cc2ccc(CN3CCOCC3)cc2)cc1)c1nc[nH]c(=O)c1O (stereo not drawn) [Compound 3, N-(2-fluoroethyl)-2-(5-hydroxy-6-oxo-1,6-dihydropyrimidin-4-yl)-3-(4-((4-(morpholinomethyl)phenyl)ethynyl)phenyl) propanamide] | 10 to 50 | 50 to 80 | 20 to 50 | 20 to 50 | < 1 | 1 to 8 (≈ 1.98 to 15.9 µM) | > 32 |  |  |  |
| O=C(NCC(Cc1ccc(C#Cc2ccc(CN3CCOCC3)cc2)cc1)c1nc[nH]c(=O)c1O)C(F)F (stereo not drawn) [Compound 15, 2,2-difluoro-N-(2-(5-hydroxy-6-oxo-1,6-dihydropyrimidin-4-yl)-3-(4-((4-(morpholinomethyl)phenyl)ethynyl)phenyl)propyl)acetamide] | 10 to 50 | 50 to 80 | 50 to 80 | < 20 | < 1 | 1 to 8 (≈ 1.91 to 15.3 µM) | > 32 |  |  |  |
